Literature values as cited in patent US7838668B2, “Method for crystallizing sucralose” (JK Sucralose Inc., priority 2006, dated 2010).

Details: relative to sucrose; background statement, no test described

SMILES: OC[C@H]1O[C@H](O[C@]2(CCl)O[C@H](CCl)[C@@H](O)[C@@H]2O)[C@H](O)[C@@H](O)[C@H]1Cl [sucralose]
- sweetness: 600 times of sucrose
